Values of other authors in US9683008B2, “Synthetic bile acid compositions and methods” (Kythera Biopharmaceuticals, Inc., priority 2010, dated 2017).

Experiments:
albumin = albumin (Homo sapiens, UniProt P02768); conditions: 0.4 mg/mL deoxycholate (comparable to the fasting state), in the presence of 26 mg/mL of albumin
[1] = neutral pH

Chain of albumin (P02768 25-609): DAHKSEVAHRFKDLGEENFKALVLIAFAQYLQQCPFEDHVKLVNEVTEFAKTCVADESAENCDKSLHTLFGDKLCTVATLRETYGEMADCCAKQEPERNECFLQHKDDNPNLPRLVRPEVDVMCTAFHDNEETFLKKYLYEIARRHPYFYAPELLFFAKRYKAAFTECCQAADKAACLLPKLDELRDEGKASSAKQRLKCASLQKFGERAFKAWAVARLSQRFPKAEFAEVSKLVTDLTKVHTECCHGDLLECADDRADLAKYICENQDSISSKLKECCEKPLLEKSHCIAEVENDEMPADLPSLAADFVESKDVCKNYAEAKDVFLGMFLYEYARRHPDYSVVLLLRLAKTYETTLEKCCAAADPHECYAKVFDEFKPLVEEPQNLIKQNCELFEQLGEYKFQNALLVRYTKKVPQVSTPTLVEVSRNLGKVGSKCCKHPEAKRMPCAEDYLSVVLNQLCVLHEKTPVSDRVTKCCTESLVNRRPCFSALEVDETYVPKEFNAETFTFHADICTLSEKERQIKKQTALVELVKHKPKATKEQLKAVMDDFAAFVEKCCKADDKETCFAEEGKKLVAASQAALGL

C[C@H](CCC(=O)[O-])[C@H]1CC[C@H]2[C@@H]3CC[C@@H]4C[C@H](O)CC[C@]4(C)[C@H]3C[C@H](O)[C@]12C.[Na+] [sodium deoxycholate]
solubility in acetone (acetone, compared with alcohol): even less soluble
solubility in glacial acetic acid (glacial acetic acid, compared with alcohol): even less soluble
soluble in water (water): 333 mg/mL
bound to albumin (albumin): 98%
critical micelle concentration [1]: approximately 2.4 mg/mL
